Measurements from patent publication US20230272002A1, “PHOTOREDOX PROTEIN MODIFICATION” (THE ROSALIND FRANKLIN INSTITUTE, priority 2020, published 2023).

T1: KDM4A (Homo sapiens, UniProt O75164)
T1 sequence (O75164 1-1064): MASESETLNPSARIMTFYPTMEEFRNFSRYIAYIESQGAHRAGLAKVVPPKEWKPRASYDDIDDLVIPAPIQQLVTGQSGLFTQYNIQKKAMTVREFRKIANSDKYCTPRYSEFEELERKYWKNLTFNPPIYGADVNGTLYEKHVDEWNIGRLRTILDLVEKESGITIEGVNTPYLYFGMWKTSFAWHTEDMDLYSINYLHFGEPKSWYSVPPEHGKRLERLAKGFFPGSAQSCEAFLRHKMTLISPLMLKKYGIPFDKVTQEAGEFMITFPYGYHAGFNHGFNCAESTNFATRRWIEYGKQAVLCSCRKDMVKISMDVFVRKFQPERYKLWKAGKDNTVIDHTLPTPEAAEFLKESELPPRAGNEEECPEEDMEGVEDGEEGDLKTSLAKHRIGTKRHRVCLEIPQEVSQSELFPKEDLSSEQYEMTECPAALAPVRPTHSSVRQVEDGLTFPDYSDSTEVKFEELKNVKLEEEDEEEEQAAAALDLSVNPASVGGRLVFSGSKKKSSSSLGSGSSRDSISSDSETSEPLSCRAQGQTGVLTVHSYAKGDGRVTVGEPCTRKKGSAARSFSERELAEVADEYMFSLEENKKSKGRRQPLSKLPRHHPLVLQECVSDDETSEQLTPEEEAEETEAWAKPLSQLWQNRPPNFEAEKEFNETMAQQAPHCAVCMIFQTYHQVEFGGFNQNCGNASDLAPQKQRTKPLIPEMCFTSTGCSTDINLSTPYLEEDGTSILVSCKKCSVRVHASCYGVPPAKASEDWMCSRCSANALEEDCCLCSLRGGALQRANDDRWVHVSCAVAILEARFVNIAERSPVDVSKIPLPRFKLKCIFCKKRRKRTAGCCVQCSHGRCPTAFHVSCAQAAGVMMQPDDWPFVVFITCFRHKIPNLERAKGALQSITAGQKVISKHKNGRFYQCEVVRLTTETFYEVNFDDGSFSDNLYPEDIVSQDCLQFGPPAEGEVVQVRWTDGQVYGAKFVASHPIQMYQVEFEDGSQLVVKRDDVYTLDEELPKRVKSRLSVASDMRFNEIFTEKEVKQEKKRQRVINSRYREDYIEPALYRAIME

T2: Sirt2 (Homo sapiens, UniProt Q8IXJ6)
T2 construct: His tag (inferred from the HisTrap purification); made in house; host or cells: E. coli BL21(DE3)
T2 sequence (Q8IXJ6 1-389): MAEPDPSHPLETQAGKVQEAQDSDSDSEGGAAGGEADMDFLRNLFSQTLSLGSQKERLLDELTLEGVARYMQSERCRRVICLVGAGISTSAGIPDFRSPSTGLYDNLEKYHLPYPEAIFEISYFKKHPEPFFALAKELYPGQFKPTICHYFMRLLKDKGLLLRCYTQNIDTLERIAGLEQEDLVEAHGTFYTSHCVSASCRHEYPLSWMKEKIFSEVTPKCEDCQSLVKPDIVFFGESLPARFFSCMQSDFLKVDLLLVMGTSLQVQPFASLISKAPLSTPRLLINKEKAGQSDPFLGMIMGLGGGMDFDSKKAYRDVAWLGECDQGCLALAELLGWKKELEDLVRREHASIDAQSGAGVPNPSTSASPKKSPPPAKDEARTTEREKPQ


What was measured:
KDM4A = target: T1, KDM4A; test: Zn ejection assay (TSQ Zn(II) fluorophore); format: biochemical; settings: 20 μM compound, 2 μM KDM4A
Method: Zn ejection assay was performed using N-(6-nethoxy-8-quinolyl)-p-toluenesulfonamide (TSQ) (Enzo) Zn(II) fluorophore as described with minor modifications28,33. In brief, assays were performed in 384 well black μCLEAR® non-binding plates (Grenier) using a reaction volume of 100 μL at 37° C. on a BMG CLARIOstar (360ex/490em). The plate was shaken (5 s, 700 rpm) before each reading, taken every 22 s for 270 cycles. Reactions consisted of […], 25 μM Ebselen or 20 μM H3 K9Bhn/H3-wt/4-bromobutylboronic acid, and those with enzyme contained 2 μM KDM4A all with 1.1% (v/v) DMSO in 50 mM HEPES (pH 7.5). Compounds and TSQ were added to the plate before initiating the assay with addition of KDM4A using the CLARIOstar injector (FIG. 4d). An internal calibration curve of ZnCl2 (0-2 μM) in 50 mM HEPES (pH 7.5) was included in each experiment to quantitate the concentrations of Zn(II) ejected. Data were normalised by subtracting a no enzyme control for that compound at each time point. Mean±standard deviation (n=3 technical replicates) was plotted for each time point using GraphPad Prism 5.0, representative data from three biological replicates is shown.
The rate of Zn(II) ejection was calculated from the slope of linear regression plotted over the linear region of Zn(II) ejection (from 946-3982 s) plotted in GraphPad Prism 5.0. […]

Cyclic voltammetry = format: physicochemical
Method: Catechol and 4-bromobutylboronic acid were obtained from Sigma-Aldrich and used as received without further purification. All solutions were made up using ultrapure water of resistivity not less than 18.2 MQ cm (Millipore) at 25° C. and degassed thoroughly with nitrogen (99.998%, BOC Gases plc) before use. Phosphate buffered saline (PBS) solution (pH=6.0) consisting of 43.85 mM sodium phosphate monobasic and 6.15 mM potassium phosphate dibasic.
All voltammetric measurements were recorded using an Autolab PGSTAT30 computer controlled potentiostat (Metrohm, Utrecht, The Netherlands). Experiments were performed in a thermostatted (25.0+0.3° C.) Faraday cage using a three-electrode set-up. A glassy carbon macroelectrode (diameter 3.0 mm, CH Instrument) was used as the working electrode, a saturated calomel electrode (SCE) as the reference electrode (SCE, ALS distributed by BASi, Tokyo, Japan) and a graphite rod as the counter electrode. Prior to each voltammetric experiment, renewal of the working electrode surface was achieved by polishing with alumina slurries in the size sequence 1.0 m, 0.3 m and 0.05 m, (Buehler Ltd, USA) followed by sonication in water and drying with nitrogen.

Sirt2 = target: T2, Sirt2; test: Sirt2 deacylation of acylated histone H3-K18 (intact-protein LC-MS timecourse, 19F-NMR); format: biochemical; settings: deacylation of γ-F2 labelled KAc side chain, protein 19F NMR
Description: H3-KAc18 and H3-KBzl8 were generated using BACED reagents (FIG. 4A).
The pySOOF reagents were also used to generate corresponding H—F labeled side chain analogues such as K[γF2]Ac and K[γF2] sidechains 2 k and 2f, respectively. […] Other sidechain variations could similarly be distinguished at different sites in the same protein e.g. H3.1-K9→H3.1-KAc9→H3.1-Kme39 (sidechains 2f→2 k→2j=δF −99.0→−98.0→−99.2) or H3.1-M27 (sidechain 2×δF −74.8) or H3.1-E9 (sidechain 2u δF −103.3). In this way, the diverse scope of available further sidechains allows this approach to be explored in numerous additional directions such as e.g. monitoring heteroatom variation (e.g. N→O, ‘deaza-oxo’ variant KOAc, sidechain 2r for H3.1-K18→H3.1-KOAc18, sidechains 2 k→2r) or even precisely assaying sidechain Met oxidation state (H3.1-M27→H3.1-Mox27→H3.1-Mox27, sidechains 2x→2y→2z).
Due to the site-selectivity of the insertion of this label and its excellent sensitivity in ‘zero background’, not only could chemical shift of ^19F signal be ‘read’ but also its multiplicity through correlated simulation (FIG. 4B).

Molecule | Time-dependent release of Zn(II) from KDM4A observed (KDM4A) | Zn(II)-ejection rate (KDM4A; 50 mM HEPES pH 7.5, 37° C., slope of linear region 946-3982 s) [nM/min] | oxidation in the absence of catechol (Cyclic voltammetry; absence of catechol) | half potential Eox (irreversible oxidation event) (Cyclic voltammetry; catechol-enhanced conditions (1:12), saturated calomel reference electrode) | L/D selectivity preference (Sirt2) | ΔΔG of L/D selectivity (Sirt2) [kcal/mol]
OB(O)CCCCBr [Example 1u-precursor, 4-bromobutylboronic acid] | not | 0.805 ± 0.010 | no oxidation was observed | +0.93 V | – | –
Sirt2: HDAC deacylation enzyme Sirt2 (protein, UniProt Q8IXJ6 2-389, looked up) NAD-dependent protein …: AEPDPSHPLETQAGKVQEAQDSDSDSEGGAAGGEADMDFLRNLFSQTLSLGSQKERLLDELTLEGVARYMQSERCRRVICLVGAGISTSAGIPDFRSPSTGLYDNLEKYHLPYPEAIFEISYFKKHPEPFFALAKELYPGQFKPTICHYFMRLLKDKGLLLRCYTQNIDTLERIAGLEQEDLVEAHGTFYTSHCVSASCRHEYPLSWMKEKIFSEVTPKCEDCQSLVKPDIVFFGESLPARFFSCMQSDFLKVDLLLVMGTSLQVQPFASLISKAPLSTPRLLINKEKAGQSDPFLGMIMGLGGGMDFDSKKAYRDVAWLGECDQGCLALAELLGWKKELEDLVRREHASIDAQSGAGVPNPSTSASPKKSPPPAKDEARTTEREKPQ | – | – | – | – | > 14 | > 1.58
